Patent US20240122180A1, “FUNGICIDAL HALOMETHYL KETONES AND HYDRATES AND THEIR MIXTURES” (FMC Corporation, priority 2020, published 2024)

Tests used:
[1] = system: Phakopsora pachyrhizi (the causal agent of Asian soybean rust); assay: Test A: preventive spray on soybean seedlings, visual disease rating (100 = 100% control; * 50 ppm, ** 10 ppm, *** 250 ppm); assay type: in vivo; settings: 100 = 100% disease control
From the text: (§1) General protocol for preparing test suspensions for Tests A-E: the test compounds were first dissolved in acetone in an amount equal to 3% of the final volume and then suspended at the desired concentration (in ppm) in acetone and purified water (50/50 mix by volume) containing 250 ppm of the surfactant […] (polyhydric alcohol esters). The resulting test suspensions were then used in Tests A-E.
(§2) The test solution was sprayed to the point of run-off on soybean seedlings. The following day the seedlings were inoculated with a spore suspension of Phakopsora pachyrhizi (the causal agent of Asian soybean rust) and incubated in a saturated atmosphere at 22° C. for 24 h, and then moved to a growth chamber at 22° C. for 8 days, after which time visual disease ratings were made.
(§3) Results for Tests A-E are given in Table A. In the Table, a rating of 100 indicates 100% disease control and a rating of 0 indicates no disease control (relative to the controls). An asterisk “*” or a double asterisk “**” or a triple asterisk “***” next to the rating value indicates a 50 ppm, 10 ppm and 250 ppm test suspension was used, respectively. A dash (-) indicates the compound was not tested.

[2] = system: Puccinia recondita f. sp. tritici (the causal agent of wheat leaf rust); assay: Test B: preventive spray on wheat seedlings, disease rating (100 = 100% control; * 50 ppm, ** 10 ppm, *** 250 ppm); assay type: in vivo; settings: 100 = 100% disease control
From the text: as §1
as §2, with “wheat” for “soybean”, “Puccinia recondita f. sp. tritici” for “Phakopsora pachyrhizi”, “wheat leaf” for “Asian soybean”, “20°” for “22°”, “6” for “8”, “time” for “time visual”
as §3

[3] = 10 ppm test suspension, soybean seedlings
[4] = 10 ppm test suspension, wheat seedlings
[5] = 10 ppm test suspension, 0 = no control
[6] = 50 ppm test suspension, 0 = no control

Row | SMILES | Test A disease control rating [1, 3] [%] | Test B disease control rating [2, 4] [%] | other results
1 | CCOC(=O)c1cnn(CCc2ccc(OCC3(C(F)(F)F)OCCO3)cc2)c1 [compound 133] | 79 | 0 | –
2 | CCCOC(=O)c1ccn(Cc2ccc(OC=C(OCC)C(F)(F)F)cc2)n1 [compound 292] | – | – | Test A disease control rating [1, 5]: 100%; Test B disease control rating [2, 5]: 0%
3 | CCOC(=O)c1cnn(Cc2ccc(OCC3(C(F)(F)F)OCCCO3)cc2)c1 [compound 52] | 99 | 0 | –
4 | CC(=O)COC(=O)c1cnn(Cc2ccc(OCC3(C(F)(F)F)OCCO3)cc2)c1 [compound 169] | 100 | 0 | –
5 | CCOC(=O)c1ccc(O/C=C(\OCC)C(F)(F)F)cc1 [compound 95] | 0 | 0 | –
6 | O=C(OCc1ccc(F)c(F)c1)c1cnn(Cc2ccc(OCC(O)(O)C(F)(F)F)cc2)c1 [compound 50] | 54 | 91 | –
7 | O=C(NCC(F)F)c1cnc(Cc2ccc(OCC(O)(O)C(F)(F)F)cc2)s1 [compound 295] | – | – | Test A disease control rating [1, 6]: 99%; Test B disease control rating [2, 6]: 80%
8 | CCOC(=O)c1cnn(Cc2ccc(O/C=C(\OCC#N)C(F)(F)F)cc2)c1 [compound 400] | – | – | Test A disease control rating [1, 6]: 100%; Test B disease control rating [2, 6]: 0%
9 | CCO/C(=C\Oc1ccc(Cn2ccc(C(=O)OCCOC)n2)cc1)C(F)(F)F [compound 360] | – | – | Test A disease control rating [1, 5]: 100%; Test B disease control rating [2, 5]: 0%
10 | CCO/C(=C\Oc1ccc(Cn2ccc(C(=O)O)n2)cc1)C(F)(F)F [compound 299] | – | – | Test A disease control rating [1, 5]: 100%; Test B disease control rating [2, 5]: 0%
11 | CCOC(=O)c1cnn(Cc2ccc(O/C=C(\OCCOC)C(F)(F)F)cc2)c1 [compound 54] | 0 | 0 | –
12 | N#Cc1cnn(Cc2ccc(OCC3(C(F)(F)F)OCCO3)cc2)c1 [compound 209] | 89 | 0 | –
13 | CCO/C(=C\Oc1ccc(Cn2cccn2)cc1)C(F)(F)F [compound 151] | 0 | 0 | –
14 | O=C(OCC(=O)C1CCCCC1)c1cnn(Cc2ccc(OCC3(C(F)(F)F)OCCO3)cc2)c1 [compound 202] | 100 | 0 | –
15 | CCOC(=COc1ccc(Cn2nccc2C(=O)OC(C)(C)C)cc1)C(F)(F)F [compound 252] | 0 | 0 | –
16 | CCCCOC(=O)c1cnn(Cc2ccc(OCC3(C(F)(F)F)OCCO3)cc2)c1 [compound 125] | 100 | 0 | –
17 | CCO/C(=C\Oc1cccc(Cn2cc(C(=O)O)cn2)c1)C(F)(F)F [compound 323] | – | – | Test A disease control rating [1, 6]: 100%; Test B disease control rating [2, 6]: 0%
18 | CCO/C(=C\Oc1ccc(Cn2cc(C(F)(F)F)cn2)cc1)C(F)(F)F [compound 182] | 0 | 0 | –
19 | CCO/C(=C\Oc1ccc(CS(=O)(=O)CC)cc1)C(F)(F)F [compound 62] | 0 | 0 | –
20 | CCO/C(=C\Oc1ccc(Cn2ncnc2SC)cc1)C(F)(F)F [compound 260] | – | – | Test A disease control rating [1, 5]: 0%; Test B disease control rating [2, 5]: 0%
21 | CCO/C(=C\Oc1cccc(Cn2cc(C(=O)OCC(C)C)cn2)c1)C(F)(F)F [compound 334] | – | – | Test A disease control rating [1, 5]: 100%; Test B disease control rating [2, 5]: 0%
22 | NCc1ccc(OCC2(C(F)(F)F)OCCO2)cc1 [compound 174] | 0 | 0 | –
23 | O=C(OCc1ccncc1)c1cnn(Cc2ccc(OCC3(C(F)(F)F)OCCO3)cc2)c1 [compound 201] | 100 | 0 | –

Row | SMILES | Test A disease control rating [1, 3] [%] | Test B disease control rating [2, 4] [%] | other results
24 | CCO/C(=C\Oc1ccc(Cn2cc(C(=O)OC(C)(C)C)cn2)cc1)C(F)(F)F [compound 89] | 0 | 0 | –
25 | CCO/C(=C\Oc1ccc(Cn2cncn2)cc1)C(F)(F)F [compound 157] | 0 | 9 | –
26 | C=CCO/C(=C\Oc1ccc(Cn2cc(C(=O)OCC)cn2)cc1)C(F)(F)F [compound 55] | 0 | 0 | –
27 | CCCCCCOC(=O)c1cnn(Cc2ccc(OCC(O)(O)C(F)(F)F)cc2)c1 [compound 48] | – | – | Test A disease control rating ([1]; 50 ppm test suspension, soybean seedlings): 100%; Test B disease control rating ([2]; 50 ppm test suspension, wheat seedlings): 91%
28 | COC(=O)c1ccc(OCC2(C(F)(F)F)OCCO2)cc1 [compound 189] | 0 | 0 | –
29 | CCNC(=O)OCc1ccc(O/C=C(\OCC)C(F)(F)F)cc1 [compound 196] | 0 | 74 | –
30 | CCO/C(=C\Oc1ccc(CSC#N)cc1)C(F)(F)F [compound 155] | 0 | 0 | –
31 | CCOC(=COc1ccc(Cn2ccc(C(F)(F)F)n2)cc1)C(F)(F)F [compound 181] | 0 | 0 | –
32 | CCOC(=O)c1ccnn1Cc1ccc(OC=C(OCC)C(F)(F)F)cc1 [compound 241] | 0 | 0 | –
33 | N#CCNC(=O)c1cnn(Cc2ccc(OCC3(C(F)(F)F)OCCO3)cc2)c1 [compound 164] | 31 | 0 | –
34 | CCO/C(=C\Oc1ccc(CNS(=O)(=O)CC)cc1)C(F)(F)F [compound 149] | 0 | 0 | –
35 | CCO/C(=C\Oc1ccc(CO)cc1)C(F)(F)F [compound 195] | 0 | 0 | –
36 | O=C(NCC(F)(F)F)c1csc(Cc2ccc(OCC(O)(O)C(F)(F)F)cc2)n1 [Compound 68] | 100 | 95 | –
37 | CCO/C(=C\Oc1ccc(Cc2nc(C(=O)NCC3CC3)cs2)cc1)C(F)(F)F [compound 130] | 100 | 0 | –
38 | CCO/C(=C\Oc1ccc(Cn2cnc(C#N)n2)cc1)C(F)(F)F [compound 82] | 97 | 0 | –
39 | CCOC(=O)NCc1ccc(OCC2(C(F)(F)F)OCCO2)cc1 [compound 78] | 94 | 0 | –
40 | O=C(CC(F)(F)F)NCc1ccc(OCC2(C(F)(F)F)OCCO2)cc1 [compound 212] | 44 | 0 | –
41 | C=C(C)COC(=O)c1cnn(Cc2cccc(O/C=C(\OCC)C(F)(F)F)c2)c1 [compound 335] | – | – | Test A disease control rating [1, 5]: 100%; Test B disease control rating [2, 5]: 0%
42 | CCO/C(=C\Oc1ccc(Cn2cc(C(=O)NCC#N)cn2)cc1)C(F)(F)F [compound 107] | 0 | 0 | –
43 | CCOC(=O)Cc1nnnn1Cc1ccc(O/C=C(\OCC)C(F)(F)F)cc1 [compound 84] | 0 | 0 | –
44 | CCO/C(=C\Oc1ccc(-c2noc(C(F)(F)F)n2)cc1)C(F)(F)F [compound 143] | 0 | 0 | –
45 | O=C(NCC(F)(F)F)c1cnc(Cc2ccc(OCC(O)(O)C(F)(F)F)cc2)s1 [compound 277] | – | – | Test A disease control rating [1, 5]: 50%; Test B disease control rating [2, 5]: 45%
